Measured values published in PubChem BioAssay AID2060893 (Molecular Pharmacology Branch, DTP, NCI, 2025).

Tested on: K86415-001-R-J1-PDC complex spheroids, viability
Assay: Anticancer human tumor K86415-001-R-J1-PDC patient-derived lung adenocarcinoma cell line growth inhibition [RAS]
Settings: for IC50: curve of first compound; for viability, T/C: stronger effect = lower value
Outline: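 Agents were tested in combination matrices in half-log decrements from a top concentration at or near clinical Cmax (10 microM if undetermined). Targets were multi-cell spheroids of tumour lines plus HUVEC and MSC stromal cells.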

[1] = second compound 0.000949 µM, first compound 0.0316 µM
[2] = second compound 0.000949 µM, first compound 0.1 µM
[3] = second compound 0.000949 µM, first compound 0.316 µM
[4] = second compound 0.000949 µM, first compound 1 µM
[5] = second compound 0.000949 µM, first compound 3.16 µM
[6] = second compound 0.000949 µM, first compound 10 µM
[7] = second compound 0.003 µM, first compound 0.0316 µM
[8] = second compound 0.003 µM, first compound 0.1 µM
[9] = second compound 0.003 µM, first compound 0.316 µM
[10] = second compound 0.003 µM, first compound 1 µM
[11] = second compound 0.003 µM, first compound 3.16 µM
[12] = second compound 0.003 µM, first compound 10 µM
[13] = second compound 0.00949 µM, first compound 0.0316 µM
[14] = second compound 0.00949 µM, first compound 0.1 µM
[15] = second compound 0.00949 µM, first compound 0.316 µM
[16] = second compound 0.00949 µM, first compound 1 µM
[17] = second compound 0.00949 µM, first compound 3.16 µM
[18] = second compound 0.00949 µM, first compound 10 µM
[19] = second compound 0.03 µM, first compound 0.0316 µM
[20] = second compound 0.03 µM, first compound 0.1 µM
[21] = second compound 0.03 µM, first compound 0.316 µM
[22] = second compound 0.03 µM, first compound 1 µM
[23] = second compound 0.03 µM, first compound 3.16 µM
[24] = second compound 0.03 µM, first compound 10 µM
[25] = second compound 0.0949 µM, first compound 0.0316 µM
[26] = second compound 0.0949 µM, first compound 0.1 µM
[27] = second compound 0.0949 µM, first compound 0.316 µM
[28] = second compound 0.0949 µM, first compound 1 µM
[29] = second compound 0.0949 µM, first compound 3.16 µM
[30] = second compound 0.0949 µM, first compound 10 µM
[31] = second compound 0.3 µM, first compound 0.0316 µM
[32] = second compound 0.3 µM, first compound 0.1 µM
[33] = second compound 0.3 µM, first compound 0.316 µM
[34] = second compound 0.3 µM, first compound 1 µM
[35] = second compound 0.3 µM, first compound 3.16 µM
[36] = second compound 0.3 µM, first compound 10 µM
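Note: spheroids exposed to agents for seven days before readout.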

Which results are given for `CC1(O)CCCC1n1c(=O)c(C(F)F)cc2cnc(NC3CCN(S(C)(=O)=O)CC3)nc21` (centres undefined) + CCn1c(-c2cccnc2C(C)OC)c2c3cc(ccc31)N1CCOC(CC(NC(=O)C(C(C)C)N(C)C(=O)C3(F)CCN(C(=O)C#CC(C)(C)N(C)C)CC3)C(=O)N3CCCC(N3)C(=O)OCC(C)(C)C2)C1?
IC50 (second compound 0.000949 µM): < 31.6 nM; IC50 (second compound 0.003 µM): < 31.6 nM; IC50 (second compound 0.00949 µM): < 31.6 nM; IC50 (second compound 0.03 µM): < 31.6 nM; IC50 (second compound 0.0949 µM): < 31.6 nM; IC50 (second compound 0.3 µM): < 31.6 nM; viability, T/C [1]: 30.1%; viability, T/C [2]: 32.6%; viability, T/C [3]: 21.6%; viability, T/C [4]: 38.8%; viability, T/C [5]: 48.3%; viability, T/C [6]: 4.79%; viability, T/C [7]: 12.8%; viability, T/C [8]: 11.3%; viability, T/C [9]: 14.8%; viability, T/C [10]: 17.3%; viability, T/C [11]: 25%; viability, T/C [12]: 4.45%; viability, T/C [13]: 13.9%; viability, T/C [14]: 10.5%; viability, T/C [15]: 12.7%; viability, T/C [16]: 18.9%; viability, T/C [17]: 19.8%; viability, T/C [18]: 4.71%; viability, T/C [19]: 13.7%; viability, T/C [20]: 13.3%; viability, T/C [21]: 14.6%; viability, T/C [22]: 15.6%; viability, T/C [23]: 18.1%; viability, T/C [24]: 4.45%; viability, T/C [25]: 11.3%; viability, T/C [26]: 15%; viability, T/C [27]: 11.6%; viability, T/C [28]: 20.2%; viability, T/C [29]: 14.9%; viability, T/C [30]: 5.12%; viability, T/C [31]: 13%; viability, T/C [32]: 14.5%; viability, T/C [33]: 12.7%; viability, T/C [34]: 14.6%; viability, T/C [35]: 17.6%; viability, T/C [36]: 3.94%

For `CCC(CC)c1cc(NC2CCC(N)C2)n2nccc2n1` (centres undefined) + CCn1c(-c2cccnc2C(C)OC)c2c3cc(ccc31)N1CCOC(CC(NC(=O)C(C(C)C)N(C)C(=O)C3(F)CCN(C(=O)C#CC(C)(C)N(C)C)CC3)C(=O)N3CCCC(N3)C(=O)OCC(C)(C)C2)C1, which IC50 (second compound 0.000949 µM) is on record?
The IC50 was 31.6 nM.

And the IC50 (second compound 0.003 µM)?
Its IC50 is < 31.6 nM.

What about the IC50 (second compound 0.00949 µM) of the same molecule?
Its IC50 is < 31.6 nM.

What about the IC50 (second compound 0.03 µM) of the same molecule?
The IC50 was < 31.6 nM.

What about the IC50 (second compound 0.0949 µM) of the same molecule?
Its IC50 is < 31.6 nM.

What about the IC50 (second compound 0.3 µM) of the same molecule?
Its IC50 is < 31.6 nM.

And the viability, T/C [1]?
The viability, T/C was 37.5%.

What about the viability, T/C [2] of the same molecule?
The viability, T/C was 40.4%.

And the viability, T/C [3]?
The viability, T/C was 39.2%.

What about the viability, T/C [4] of the same molecule?
The viability, T/C was 61.9%.

What about the viability, T/C [5] of the same molecule?
Its viability, T/C is 2.95%.

And the viability, T/C [6]?
The viability, T/C was 2.43%.

And the viability, T/C [7]?
Its viability, T/C is 14.9%.

What about the viability, T/C [8] of the same molecule?
The viability, T/C was 14.6%.

What about the viability, T/C [9] of the same molecule?
The viability, T/C was 13%.

What about the viability, T/C [10] of the same molecule?
The viability, T/C was 20.1%.

And the viability, T/C [11]?
Its viability, T/C is 3.32%.

And the viability, T/C [12]?
Its viability, T/C is 3.8%.

What about the viability, T/C [13] of the same molecule?
Its viability, T/C is 15.2%.

What about the viability, T/C [14] of the same molecule?
The viability, T/C was 12.3%.

And the viability, T/C [15]?
The viability, T/C was 15%.

And the viability, T/C [16]?
Its viability, T/C is 20.3%.

What about the viability, T/C [17] of the same molecule?
Its viability, T/C is 2.22%.

What about the viability, T/C [18] of the same molecule?
Its viability, T/C is 3.83%.

What about the viability, T/C [19] of the same molecule?
The viability, T/C was 12.6%.

What about the viability, T/C [20] of the same molecule?
The viability, T/C was 12.1%.

And the viability, T/C [21]?
Its viability, T/C is 15.5%.

And the viability, T/C [22]?
The viability, T/C was 13.3%.

And the viability, T/C [23]?
Its viability, T/C is 1.81%.

What about the viability, T/C [24] of the same molecule?
The viability, T/C was 3.54%.

What about the viability, T/C [25] of the same molecule?
Its viability, T/C is 12.4%.

And the viability, T/C [26]?
The viability, T/C was 13.6%.

What about the viability, T/C [27] of the same molecule?
Its viability, T/C is 15.6%.

And the viability, T/C [28]?
The viability, T/C was 13.9%.

And the viability, T/C [29]?
Its viability, T/C is 1.94%.

What about the viability, T/C [30] of the same molecule?
The viability, T/C was 3.52%.

And the viability, T/C [31]?
Its viability, T/C is 11.8%.

And the viability, T/C [32]?
Its viability, T/C is 14.9%.

What about the viability, T/C [33] of the same molecule?
Its viability, T/C is 12.4%.

And the viability, T/C [34]?
The viability, T/C was 9.04%.

What about the viability, T/C [35] of the same molecule?
The viability, T/C was 2.28%.

What about the viability, T/C [36] of the same molecule?
Its viability, T/C is 3.42%.
